Measured values from patent US8409550B2, “Method for treating skin with retinoids and retinoid boosters” (Unilever Home & Personal Care, USA, Division of Conopco, …, priority 2000, dated 2013).
“And” between values parts separate entries of the source, which are not always exact repeats. Identical values can stand only once. Like-named read-outs stand apart in the source and are kept apart here. One block for each molecule: values may come before it.

Experiments:
[1] = test system: Retinal Reductase; assay: Assay for retinal reductase activity, rat liver microsomes (to identify B3); assay type: biochemical; details: test compound final 100 μM
[2] = test system: transglutaminase (TGase I); assay: Transglutaminase (Tgase) ELISA assay in cultured keratinocytes with retinol and boosters; assay type: cell-based, human; details: for TG as % C, Compd 3: Compound 3 alone; for TG as % C, Compd 3 / TG as % C Compd 2 / TG as % C Compd 1: concentration one log below IC20; for IC20: IC20 (80% of control)
[3] = test system: ARAT; assay: Assay for ARAT activity, bovine RPE microsomes (to identify B1); assay type: biochemical; details: for % Inhibition ARAT (100 jm): compound 100 jm; for % Inhibition ARAT (10 jm): compound 10 jm
[4] = molecular target: T1, LRAT (Bos taurus, UniProt Q9BGL2); assay: Assay for LRAT activity, bovine RPE microsomes (to identify B1); assay type: biochemical; details: for % Inhibition LRAT (100 jm): compound 100 jm; for % Inhibition LRAT (10 jm): compound 10 jm
T1 construct: followed by approximately 15 μg of RPE microsomal protein; tissue W. L. Lawson Co., Lincoln, Nebr., USA (eyecups); host or cells: bovine retinal pigment epithelium microsomes
T1 sequence (Q9BGL2 1-230): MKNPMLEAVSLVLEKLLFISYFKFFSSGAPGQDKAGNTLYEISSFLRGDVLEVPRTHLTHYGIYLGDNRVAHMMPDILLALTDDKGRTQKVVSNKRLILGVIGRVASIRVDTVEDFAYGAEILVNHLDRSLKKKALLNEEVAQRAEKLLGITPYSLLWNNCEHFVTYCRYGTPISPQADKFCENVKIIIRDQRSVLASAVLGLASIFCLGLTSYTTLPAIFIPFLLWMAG

[5] = test system: cytochrome P450 dependent retinoic acid oxidation; assay: Assay for NADPH dependent retinoic acid oxidation, rat liver microsomes (to identify B5); details: for % Inhibition Retinoic Acid (10 μM): compound 10 μM; for % Inhibition Retinoic Acid (100 μM): compound 100 μM
[6] = in the presence of 10^-7M retinol
[7] = compound tested individually in the presence of 10^-7 M retinol
[8] = B1 table, booster concentration which with 10^−7 M retinol inhibits TGase by 50%, same values in the 19th table (Molar), read-out: Overall TG (IC 50)
[9] = Compound 1 alone, in the presence of 10^-7M retinol
[10] = Tgase inhibition, compound tested individually in the presence of 10^-7 M retinol, read-out: IC50
[11] = Compound 2 alone, in the presence of 10^-7M retinol

Molecule: CC1(C)[C@@H](OC(=O)CCC(=O)O)CC[C@]2(C)[C@H]3C(=O)C=C4[C@@H]5C[C@@](C)(C(=O)O)CC[C@]5(C)CC[C@@]4(C)[C@]3(C)CC[C@@H]12 [Carbenoxolone, reference compound]
% Inhibition Retinal Reductase [1]: 26% +/− 2
TG as % C, Compd 3 [2, 6]: 88 % C
IC20 [2, 7]: 0.2 µM
TG as % C Compd 2 ([2]; compound 2 alone, with retinol): 164 % C

Molecule: CC(=O)CCC1C(C)=CCCC1(C)C (stereo not drawn) [Dihydro Alpha-Ionone]
% Inhibition ARAT (100 jm) [3]: 13%
% Inhibition LRAT (100 jm) [4]: 18%

Molecule: Isocyclogeraniol
% Inhibition ARAT (100 jm) [3]: 18%
% Inhibition LRAT (100 jm) [4]: 16%

Molecule: Hexanoyl Sphingosine
IC50 [2, 8]: 99.9 µM
TG as % C Compd 1 [2, 9]: 104 % C
IC20 [2, 7]: 69.4 µM
IC50 [2, 10]: 99.9 µM
TG as % C Compd 1 ([2]; compound 1 alone, with retinol): 122 % C and 99.3 % C and 99 % C and 109 % C
% Inhibition LRAT (100 jm) [4]: 37% +/− 9

Molecule: Isobutyl Ionone
% Inhibition ARAT (100 jm) [3]: 8%
% Inhibition LRAT (100 jm) [4]: 45%

Molecule: Santalone
% Inhibition ARAT (100 jm) [3]: 23%
% Inhibition LRAT (100 jm) [4]: 12%

Molecule: CCCCCCCCCCCCCC(=O)O [Myristic Acid]
% Inhibition Retinal Reductase [1]: 26%
TG as % C Compd 1 [2, 9]: 79 % C
IC20 [2, 7]: 10.5 µM
TG as % C Compd 1 ([2]; compound 1 alone, with retinol): 110 % C

Molecule: Clc1ccc(COC(Cn2ccnc2)c2ccc(Cl)cc2Cl)cc1 (stereo not shown) [Econazole]
% Inhibition Retinoic Acid (10 μM) [5]: 88%
% Inhibition Retinoic Acid (100 μM) [5]: 100%

Molecule: Brahmanol
% Inhibition ARAT (100 jm) [3]: 70%
% Inhibition LRAT (100 jm) [4]: 75%

Molecule: Acetyl Sphingosine
% Inhibition ARAT (10 jm) [3]: 19% +/− 12
% Inhibition ARAT (100 jm) [3]: 62% +/− 11
IC50 [2, 8]: 6.78 µM
TG as % C, Compd 3 [2, 6]: 99 % C
IC20 [2, 7]: 5.15 µM
IC50 [2, 10]: 6.78 µM
% Inhibition LRAT (10 jm) [4]: 10% +/− 10
% Inhibition LRAT (100 jm) [4]: 50% +/− 18

Molecule: COc1cc(C=O)ccc1O [Vanillin]
% Inhibition Retinal Reductase [1]: 6%
TG as % C, Compd 3 [2, 6]: 134 % C
IC20 [2, 7]: 8470 µM

Molecule: CC(=O)N1CCN(c2ccc(OCC3COC(Cn4ccnc4)(c4ccc(Cl)cc4Cl)O3)cc2)CC1 (stereo not shown) [Ketoconazole, reference compound]
% Inhibition Retinoic Acid (10 μM) [5]: 84%
% Inhibition Retinoic Acid (100 μM) [5]: 84%
TG as % C Compd 2 [2, 11]: 85 % C
IC20 [2, 7]: 0.0552 µM

Molecule: c1ccc(-c2ccc(C(c3ccccc3)n3ccnc3)cc2)cc1 (stereo not shown) [Bifonazole]
% Inhibition Retinoic Acid (10 μM) [5]: 89%
% Inhibition Retinoic Acid (100 μM) [5]: 100%

Molecule: CC1(C)[C@@H](O)CC[C@]2(C)[C@H]3C(=O)C=C4[C@@H]5C[C@@](C)(C(=O)O)CC[C@]5(C)CC[C@@]4(C)[C@]3(C)CC[C@@H]12 [Glycyrretinic Acid, Glycyrrhetinic Acid]
% Inhibition Retinal Reductase [1]: 38% +/− 1
TG as % C Compd 2 [2, 11]: 91 % C
TG as % C, Compd 3 [2, 6]: 91 % C
IC20 [2, 7]: 5.96 µM
IC50 [2, 10]: 8.64 µM
TG as % C Compd 2 ([2]; compound 2 alone, with retinol): 92 % C

Molecule: Gamma-Methyl Ionone
% Inhibition LRAT (100 jm) [4]: 38%

Molecule: Santanol
% Inhibition ARAT (100 jm) [3]: 15%
% Inhibition LRAT (100 jm) [4]: 43%

Molecule: CCCCC/C=C\C/C=C\C/C=C\C/C=C\CCCC(=O)O [Arachidonic Acid]
% Inhibition Retinal Reductase [1]: 49%

Molecule: Glycerol-PCA-Oleate
% Inhibition ARAT (100 jm) [3]: 41% +/− 6
% Inhibition LRAT (100 jm) [4]: 58% +/− 2

Molecule: CC(C)(C)C(=O)C(Oc1ccc(Cl)cc1)n1ccnc1 (stereo not shown) [Climbazole, reference compound]
% Inhibition Retinoic Acid (10 μM) [5]: 80%
% Inhibition Retinoic Acid (100 μM) [5]: 92%
TG as % C Compd 2 [2, 11]: 84 % C
TG as % C, Compd 3 [2, 6]: 84 % C
IC20 [2, 7]: 0.245 µM

Molecule: CCCCC/C=C\C/C=C\CCCCCCCC(=O)N(CCO)CCO [Linoleoyl Diethanolamide]
% Inhibition Overall TG (—ROH/RE) ([2]; % (booster+retinol inhibition/control inhibition) − % (ROH inhibition/control inhibition)): 59%
% Inhibition LRAT (10 jm) [4]: 11% +/− 9
% Inhibition LRAT (100 jm) [4]: 51% +/− 15

Molecule: O=c1c(O)c(-c2ccc(O)c(O)c2)oc2cc(O)cc(O)c12 [Quercetin]
% Inhibition Retinoic Acid (10 μM) [5]: 40%
% Inhibition Retinoic Acid (100 μM) [5]: 74%
TG as % C, Compd 3 [2, 6]: 92 % C
IC20 [2, 7]: 51.1 µM

Molecule: CCCCCCCC/C=C\CCCCCCCC1=NCCN1CCO [Oleyl Hydroxyethylimidazoline]
% Inhibition Retinoic Acid (10 μM) [5]: 54%
% Inhibition Retinoic Acid (100 μM) [5]: 80%
IC50 ([2]; B5 table, with 10^−7 M retinol, read-out: Overall TG (IC 50)): 30.2 µM
TG as % C, Compd 3 [2, 6]: 76 % C
IC20 [2, 7]: 5.65 µM
IC50 [2, 10]: 30.2 µM
TG as % C Compd 2 ([2]; compound 2 alone, with retinol, listed as Oleoyl hydorxyethylimdazoline): 92 % C
TG as % C Compd 2 ([2]; compound 2 alone, with retinol, listed as Oleoyl hydroxyethylimiazoline): 73 % C

More lines, main results first:

% Inhibition Retinoic Acid (10 μM) [5]: 74%
% Inhibition Retinoic Acid (100 μM) [5]: 86%
Molecule: Clc1ccc(COC(Cn2ccnc2)c2ccc(Cl)cc2Cl)c(Cl)c1 (stereo not shown) [Miconazole, reference compound]
TG as % C Compd 2 [2, 11]: 92 % C
TG as % C, Compd 3 [2, 6]: 82 % C
IC20 [2, 7]: 0.0842 µM

% Inhibition LRAT (100 jm) [4]: 77%
Molecule: Alpha-Methyl Ionone
% Inhibition ARAT (100 jm) [3]: 67%

% Inhibition LRAT (10 jm) [4]: 29%
% Inhibition LRAT (100 jm) [4]: 79%
Molecule: Damascenone

% Inhibition LRAT (10 jm) [4]: 52%
% Inhibition LRAT (100 jm) [4]: 92%
Molecule: C/C=C/C(=O)C1=C(C)CCCC1(C)C [Beta-Damascone]

% Inhibition LRAT (100 jm) [4]: 34%
Molecule: Cocoyl Monoethanolamide
% Inhibition ARAT (100 jm) [3]: 13%

% Inhibition Retinoic Acid (10 μM) [5]: 76%
Molecule: Clc1ccccc1C(c1ccccc1)(c1ccccc1)n1ccnc1 [Clotrimazole, reference compound]
TG as % C, Compd 3 [2, 6]: 79 % C

% Inhibition Retinal Reductase [1]: 20%
Molecule: CCCCCCCCCCCCCCCCCCCC(=O)O [Arachidic Acid]

IC50 [2, 8]: 335 µM
IC20 [2, 7]: 169 µM
IC50 [2, 10]: 335 µM
TG as % C Compd 1 ([2]; compound 1 alone, with retinol, listed as Alpha-demascone): 95 % C and 112 % C
% Inhibition LRAT (10 jm) [4]: 87% +/− 6
% Inhibition LRAT (100 jm) [4]: 98% +/− 1
Molecule: C/C=C\C(=O)C1C(C)=CCCC1(C)C (stereo not drawn) [Alpha-Damascone]

% Inhibition Retinal Reductase [1]: 62% +/− 2
Molecule: CCCCC/C=C\C/C=C\CCCCCCCC(=O)O [Linoleic Acid]
TG as % C, Compd 3 [2, 6]: 11 % C
IC20 [2, 7]: 89.5 µM

% Inhibition LRAT (100 jm) [4]: 92%
Molecule: CC=CC(=O)C1CCC(C)(C)C=C1C (stereo not shown) [Isodamascone]
% Inhibition ARAT (100 jm) [3]: 80%

% Inhibition LRAT (10 jm) [4]: 0%
% Inhibition LRAT (100 jm) [4]: 17% +/− 17
Molecule: CCCCCCCC(=O)OCC(COP(=O)(O)OCCN)OC(=O)CCCCCCC (stereo not shown) [Dioctylphosphatidyl Ethanolamine]
% Inhibition ARAT (10 jm) [3]: 23%

% Inhibition Retinoic Acid (100 μM) [5]: 47%
Molecule: CC(C)(C(=O)c1cccnc1)c1cccnc1 [2-Methyl-1,2-di-3-Pyridyl-1-Propane]
